Measurements: the supplement of paper PMC8149375

Key:
Details in all cases: treatment: drug + dasatinib (fixed dose, not stated); 5 days
[1] = tested on: 786-O; assay: GI50 of drug in presence of dasatinib; higher = less potent
Protocol: (§1)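 Primary HTS combination arm: 8 RCC cell lines treated with 8 doses (up to 10 uM) of each library drug plus a fixed dose of dasatinib (dose not stated) for 5 days; viability read by CellTiter-Glo and normalised to DMSO. GI50 was fitted with XLfit, AUC is the area under the dose-response curve, and minimum viability is the lowest fraction of DMSO viability across doses.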

[2] = tested on: ACHN; assay: as above
Protocol: as §1

[3] = tested on: CAKI-1; assay: as above
Protocol: as §1

[4] = tested on: SN12C; assay: as above
Protocol: as §1

[5] = tested on: UO-31; assay: as above
Protocol: as §1

[6] = tested on: 769-P; assay: minimum viability across doses, drug + dasatinib, relative to DMSO (fraction); higher = less growth inhibition
Protocol: as §1

[7] = tested on: 786-O; assay: as above
Protocol: as §1

[8] = tested on: A498; assay: as above
Protocol: as §1

[9] = tested on: ACHN; assay: as above
Protocol: as §1

[10] = tested on: CAKI-1; assay: as above
Protocol: as §1

[11] = tested on: SN12C; assay: as above
Protocol: as §1

[12] = tested on: TK-10; assay: as above
Protocol: as §1

[13] = tested on: UO-31; assay: as above
Protocol: as §1

[14] = tested on: 769-P; assay: AUC of dose-response viability curve, drug + dasatinib, normalised to DMSO (arbitrary (AUC of normalised viability)); higher = less growth inhibition
Protocol: as §1

[15] = tested on: 786-O; assay: as above
Protocol: as §1

[16] = tested on: A498; assay: as above
Protocol: as §1

[17] = tested on: ACHN; assay: as above
Protocol: as §1

[18] = tested on: CAKI-1; assay: as above
Protocol: as §1

[19] = tested on: SN12C; assay: as above
Protocol: as §1

[20] = tested on: TK-10; assay: as above
Protocol: as §1

[21] = tested on: UO-31; assay: as above
Protocol: as §1

[22] = tested on: 769-P; assay: GI50 of drug in presence of dasatinib; higher = less potent
Protocol: as §1

[23] = tested on: A498; assay: as above
Protocol: as §1

[24] = tested on: TK-10; assay: as above
Protocol: as §1

Row | SMILES | GI50 of drug [1] | GI50 of drug [2] | GI50 of drug [3] | GI50 of drug [4] | GI50 of drug [5] | minimum viability across doses [6] | minimum viability across doses [7] | minimum viability across doses [8] | minimum viability across doses [9] | minimum viability across doses [10] | minimum viability across doses [11] | minimum viability across doses [12] | minimum viability across doses [13] | AUC of dose-response viability curve [14] | AUC of dose-response viability curve [15] | AUC of dose-response viability curve [16] | AUC of dose-response viability curve [17] | AUC of dose-response viability curve [18] | AUC of dose-response viability curve [19] | AUC of dose-response viability curve [20] | AUC of dose-response viability curve [21] | GI50 of drug [22] | GI50 of drug [23] | GI50 of drug [24]
1 | CO[C@H]1C[C@H]2CC[C@@H](C)[C@@](O)(O2)C(=O)C(=O)N2CCCC[C@H]2C(=O)O[C@H]([C@H](C)C[C@@H]2CC[C@H](OP(C)(C)=O)[C@H](OC)C2)CC(=O)[C@H](C)/C=C(\C)[C@@H](O)[C@@H](OC)C(=O)[C@H](C)C[C@H](C)/C=C/C=C/C=C/1C (stereo in doubt) [Deforolimus (Ridaforolimus)] + Cc1nc(Nc2ncc(C(=O)Nc3c(C)cccc3Cl)s2)cc(N2CCN(CCO)CC2)n1 [dasatinib] | < 0.003 µM | 0.00436 µM | 0.0168 µM | 0.0256 µM | 0.0286 µM | 0.397 | 0.287 | 0.493 | 0.263 | 0.295 | 0.407 | 0.4 | 0.257 | 1.71 | 1.11 | 1.95 | 1.18 | 1.38 | 1.67 | 1.98 | 1.39 | – | – | –
2 | CCN(CCO)CCCOc1ccc2c(Nc3cc(CC(=O)Nc4cccc(F)c4)n[nH]3)ncnc2c1 [Barasertib (AZD1152-HQPA)] + Cc1nc(Nc2ncc(C(=O)Nc3c(C)cccc3Cl)s2)cc(N2CCN(CCO)CC2)n1 [dasatinib] | 0.113 µM | – | 0.678 µM | > 10 µM | > 10 µM | 0.346 | 0.157 | 0.841 | 0.417 | 0.402 | 0.628 | 0.685 | 0.842 | 2.09 | 1.61 | 3.31 | 1.83 | 2.04 | 2.41 | 2.65 | 3.22 | 1.23 µM | > 10 µM | > 10 µM
3 | CO[C@H]1C[C@@H]2CC[C@@H](C)[C@@](O)(O2)C(=O)C(=O)N2CCCC[C@H]2C(=O)O[C@H]([C@H](C)C[C@@H]2CC[C@@H](OCCO)[C@H](OC)C2)CC(=O)[C@H](C)/C=C(\C)[C@@H](O)[C@@H](OC)C(=O)[C@H](C)C[C@H](C)/C=C/C=C/C=C/1C [Everolimus (RAD001)] + Cc1nc(Nc2ncc(C(=O)Nc3c(C)cccc3Cl)s2)cc(N2CCN(CCO)CC2)n1 [dasatinib] | < 0.003 µM | < 0.003 µM | 0.117 µM | > 10 µM | 0.231 µM | 0.416 | 0.253 | 0.645 | 0.225 | 0.353 | 0.489 | 0.426 | 0.396 | 1.75 | 1.06 | 2.43 | 1.06 | 1.7 | 1.93 | 1.95 | 1.79 | – | > 10 µM | –
4 | CCCNC(=O)Nc1ccc(Oc2ncnc3cc(OC)c(OC)cc23)cc1Cl [KRN 633] + Cc1nc(Nc2ncc(C(=O)Nc3c(C)cccc3Cl)s2)cc(N2CCN(CCO)CC2)n1 [dasatinib] | > 10 µM | – | > 10 µM | > 10 µM | > 10 µM | 0.511 | 0.468 | 0.847 | 0.421 | 0.556 | 0.612 | 0.613 | 0.889 | 2.44 | 2.06 | 3.47 | 1.76 | 2.31 | 2.51 | 2.5 | 3.62 | > 10 µM | > 10 µM | > 10 µM
5 | CN1C(=O)C(Cc2c[nH]c3ccccc23)NC1=S (centres undefined) [Necrostatin-1] + Cc1nc(Nc2ncc(C(=O)Nc3c(C)cccc3Cl)s2)cc(N2CCN(CCO)CC2)n1 [dasatinib] | > 10 µM | – | > 10 µM | > 10 µM | > 10 µM | 0.71 | 0.628 | 0.963 | 0.492 | 0.535 | 0.7 | 0.639 | 1.06 | 2.66 | 2.48 | 3.71 | 1.92 | 2.13 | 2.59 | 2.34 | 4.58 | > 10 µM | > 10 µM | > 10 µM
6 | Oc1cc(O)cc(/C=C/c2ccc(O)c(O)c2)c1 [Piceatannol] + Cc1nc(Nc2ncc(C(=O)Nc3c(C)cccc3Cl)s2)cc(N2CCN(CCO)CC2)n1 [dasatinib] | 0.354 µM | – | 1.15 µM | > 10 µM | > 10 µM | 0.498 | 0.31 | 0.903 | 0.167 | 0.135 | 0.603 | 0.653 | 1.24 | 1.97 | 1.91 | 3.83 | 1.78 | 2.07 | 2.46 | 2.59 | 5.19 | 9.79 µM | > 10 µM | > 10 µM
7 | CO[C@H]1C[C@@H]2CC[C@@H](C)[C@@](O)(O2)C(=O)C(=O)N2CCCC[C@H]2C(=O)O[C@H]([C@H](C)C[C@@H]2CC[C@@H](O)[C@H](OC)C2)CC(=O)[C@H](C)/C=C(\C)[C@@H](O)[C@@H](OC)C(=O)[C@H](C)C[C@H](C)/C=C/C=C/C=C/1C [Rapamycin (Sirolimus)] + Cc1nc(Nc2ncc(C(=O)Nc3c(C)cccc3Cl)s2)cc(N2CCN(CCO)CC2)n1 [dasatinib] | < 0.003 µM | < 0.003 µM | < 0.003 µM | < 0.003 µM | < 0.003 µM | 0.389 | 0.26 | 0.52 | 0.247 | 0.256 | 0.451 | 0.445 | 0.277 | 1.59 | 0.989 | 2.01 | 1.03 | 1.11 | 1.68 | 1.76 | 1.15 | – | 1.05 µM | –
8 | Cn1cc(-c2ccc3nnc(Sc4ccc5ncccc5c4)n3n2)cn1 [SGX-523] + Cc1nc(Nc2ncc(C(=O)Nc3c(C)cccc3Cl)s2)cc(N2CCN(CCO)CC2)n1 [dasatinib] | 5.68 µM | – | 5.5 µM | > 10 µM | > 10 µM | 0.548 | 0.477 | 0.743 | 0.452 | 0.41 | 0.679 | 0.646 | 0.836 | 2.38 | 2.25 | 2.84 | 1.87 | 1.92 | 2.46 | 2.41 | 3.15 | > 10 µM | > 10 µM | > 10 µM
9 | COc1cc(N2CCC(N3CCN(C)CC3)CC2)ccc1Nc1ncc(Cl)c(Nc2ccccc2S(=O)(=O)C(C)C)n1 [TAE684 (NVP-TAE684)] + Cc1nc(Nc2ncc(C(=O)Nc3c(C)cccc3Cl)s2)cc(N2CCN(CCO)CC2)n1 [dasatinib] | < 0.003 µM | 0.0373 µM | 0.224 µM | 0.427 µM | – | 0.23 | 0.0739 | 0.348 | 0.0286 | 0.0167 | 0.0423 | 0.206 | 0.0115 | 1.83 | 1.55 | 2.64 | 1.15 | 1.51 | 1.82 | 2.06 | 2.04 | – | 2.87 µM | 0.64 µM
10 | O=c1sn(-c2cccc3ccccc23)c(=O)n1Cc1ccccc1 [Tideglusib] + Cc1nc(Nc2ncc(C(=O)Nc3c(C)cccc3Cl)s2)cc(N2CCN(CCO)CC2)n1 [dasatinib] | 0.0101 µM | – | > 10 µM | > 10 µM | > 10 µM | 0.632 | 0.429 | 0.729 | 0.357 | 0.664 | 0.672 | 0.642 | 1.03 | 2.52 | 1.76 | 3.01 | 1.79 | 2.44 | 2.5 | 2.33 | 4.27 | > 10 µM | > 10 µM | > 10 µM
11 | CCO.N#CC(=C(/N)Sc1ccccc1N)/C(C#N)=C(\N)Sc1ccccc1N [U0126-EtOH] + Cc1nc(Nc2ncc(C(=O)Nc3c(C)cccc3Cl)s2)cc(N2CCN(CCO)CC2)n1 [dasatinib] | > 10 µM | – | 6.71 µM | > 10 µM | > 10 µM | 0.68 | 0.526 | 0.888 | 0.353 | 0.46 | 0.598 | 0.524 | 0.792 | 2.5 | 2.5 | 3.54 | 1.84 | 2.37 | 2.4 | 2.65 | 3.2 | > 10 µM | > 10 µM | > 10 µM
12 | NC(=O)c1ccc(N(C(N)=O)c2c(F)cccc2F)nc1-c1ccc(F)cc1F [VX-702] + Cc1nc(Nc2ncc(C(=O)Nc3c(C)cccc3Cl)s2)cc(N2CCN(CCO)CC2)n1 [dasatinib] | > 10 µM | – | > 10 µM | > 10 µM | > 10 µM | 0.627 | 0.547 | 0.887 | 0.409 | 0.649 | 0.685 | 0.598 | 1.12 | 2.4 | 2.23 | 3.52 | 1.87 | 2.43 | 2.54 | 2.39 | 4.36 | > 10 µM | > 10 µM | > 10 µM
13 | Cl.Cl.Clc1ccc(Nc2nnc(Cc3ccncc3)c3ccccc23)cc1 [Vatalanib dihydrochloride (PTK787)] + Cc1nc(Nc2ncc(C(=O)Nc3c(C)cccc3Cl)s2)cc(N2CCN(CCO)CC2)n1 [dasatinib] | > 10 µM | – | 2.76 µM | > 10 µM | > 10 µM | 0.433 | 0.549 | 0.729 | 0.474 | 0.217 | 0.632 | 0.666 | 0.834 | 2.3 | 2.65 | 3.2 | 1.91 | 2.04 | 2.32 | 2.63 | 3.35 | 7.92 µM | > 10 µM | > 10 µM
